# Measured values reported in US8048901B2, “1,3-substituted cycloalkyl derivatives having acidic, mostly heterocyclic groups, processes for their preparation and their use as pharmaceuticals” (Aventis Pharma Deutschland GmbH, priority 2003, dated 2011).
# Target: T1, human PPARalpha (Homo sapiens, UniProt Q07869)
# T1 construct: human PPARalpha receptor (amino acids S167-Y468); expressed in transfected cells; host or cells: HEK cells (human embryo kidney), stably transfected with a pcDNA3-based plasmid
# T1 sequence (Q07869 167-468): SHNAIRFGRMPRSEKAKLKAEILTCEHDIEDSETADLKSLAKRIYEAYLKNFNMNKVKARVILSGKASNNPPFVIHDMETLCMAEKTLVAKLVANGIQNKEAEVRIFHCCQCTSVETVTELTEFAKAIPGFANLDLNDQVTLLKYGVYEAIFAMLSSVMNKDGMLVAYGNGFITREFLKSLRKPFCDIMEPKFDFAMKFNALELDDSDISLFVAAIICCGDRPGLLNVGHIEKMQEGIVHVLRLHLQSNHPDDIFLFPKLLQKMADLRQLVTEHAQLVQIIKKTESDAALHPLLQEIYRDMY
# Test: Cellular PPARalpha assay (stably transfected HEK PPARalpha reporter cell line, luciferase)
# Format: cell-based
# Conditions: GR-GAL4-humanPPARalpha-LBD, luciferase readout
# Procedure: Determination of EC50 Values of PPAR Agonists in the Cellular PPARalpha Assay
# The potency of substances which bind to human PPARalpha and activate in an agonistic manner is analyzed using a stably transfected HEK cell line (HEK=human embryo kidney) which is referred to here as PPARalpha reporter cell line. It contains two genetic elements, a luciferase reporter element (pdeltaM-GAL4-Luc-Zeo) and a PPARalpha fusion protein (GR-GAL4-humanPPARalpha-LBD) which mediates expression of the luciferase reporter element depending on a PPARalpha ligand. The stably and constitutively expressed fusion protein GR-GAL4-humanPPARalpha-LBD binds in the cell nucleus of the PPARalpha reporter cell line via the GAL4 protein portion to the GAL4 DNA binding motifs 5′-upstream of the luciferase reporter element which is integrated in the genome of the cell line. There is only little expression of the luciferase reporter gene without addition of a PPARalpha ligand if fatty acid-depleted fetal calf serum (cs-FCS) is used in the assay. PPARalpha ligands bind and activate the PPARalpha fusion protein and thereby bring about expression of the luciferase reporter gene. The luciferase which is formed can be detected by means of chemiluminescence via an appropriate substrate.
# The PPARalpha reporter cell line was prepared in 2 stages. Firstly, the luciferase reporter element was constructed and stably transfected into HEK cells. For this purpose, five binding sites of the yeast transcription factor GAL4 (each 5′-CGGAGTACTGTCCTCCGAG-3′) (SEQ ID No. 1) were cloned in 5′-upstream of a 68 bp-long minimal MMTV promoter (Genbank Accession # V01175). The minimal MMTV promoter section contains a CCAAT box and a TATA element in order to enable efficient transcription by RNA polymerase II. The cloning and sequencing of the GAL4-MMTV construct took place in analogy to the description of Sambrook J. et. al. (Molecular cloning, Cold Spring Harbor Laboratory Press, 1989). Then the complete Photinus pyralis gene (Genbank Accession # M15077) was cloned in 3′-downstream of the GAL4-MMTV element. After sequencing, the luceriferase reporter element consisting of five GAL4 binding sites, MMTV promoter and luciferase gene was recloned into a plasmid which confers zeocin resistance in order to obtain the plasmid pdeltaM-GAL4-Luc-Zeo. This vector was transfected into HEK cells in accordance with the statements in Ausubel, F. M. et al. (Current protocols in molecular biology, Vol. 1-3, John Wiley & Sons, Inc., 1995).
# In a second step, the PPARalpha fusion protein (GR-GAL4-humanPPARalpha-LBD) was introduced into the stable cell clone described. For this purpose, initially the cDNA coding for the N-terminal 76 amino acids of the glucocorticoid receptor (Genbank Accession # P04150) was linked to the cDNA section coding for amino acids 1-147 of the yeast transcription factor GAL4 (Genbank Accession # P04386). The cDNA of the ligand-binding domain of the human PPARalpha receptor (amino acids S167-Y468; Genbank Accession # S74349) was cloned in at the 3′-end of this GR-GAL4 construct. The fusion construct prepared in this way (GR-GAL4-humanPPARalpha-LBD) was recloned into the plasmid pcDNA3 (from Invitrogen) in order to enable constitutive expression therein by the cytomegalovirus promoter. This plasmid was linearized with a restriction endonuclease and stably transfected into the previously described cell clone containing the luciferase reporter element. The finished PPARalpha reporter cell line which contains a luciferase reporter element and constitutively expresses the PPARalpha fusion protein (GR-GAL4-human PPARalpha-LBD) was isolated by selection with zeocin (0.5 mg/ml) and G418 (0.5 mg/ml).
# The activity of PPARalpha agonists is determined in a 3-day assay which is described below: […]
row,EC50 [nM],SMILES
1,24,"Cc1ccc(-c2nc(CO[C@@H]3CCC[C@H](Cn4c(C(=O)O)cc5ccccc54)C3)c(C)o2)cc1 (racemic) [Example XXVI, 1-[(1S,3R)/(1R,3S)-3-(5-Methyl-2-p-tolyloxazol-4-ylmethoxy)cyclohexylmethyl]-1H-indole-2-carboxylic acid]"
2,519,"Cc1cccc(-c2nc(CO[C@H]3CCC[C@@H](OCCOc4ccccc4C(=O)O)C3)c(C)o2)c1 [Example XV, (1R,3S)-2-{2-[3-(5-Methyl-2-m-tolyloxazol-4-ylmethoxy)cyclohexyloxy]-ethoxy}benzoic acid]"
3,530,"Cc1cccc(-c2nc(CO[C@H]3CCC[C@@H](OCCOc4cccc(C)c4[N+](=O)[O-])C3)c(C)o2)c1 [Example XXI, (1S,3R)-5-Methyl-4-{3-[2-(3-methyl-2-nitrophenoxy)ethoxy]cyclohexyloxymethyl}-2-m-tolyloxazole]"
4,222,"Cc1cccc(-c2nc(CO[C@H]3CCC[C@@H](OCCOc4cc(C(F)(F)F)sc4C(=O)O)C3)c(C)o2)c1 [Example XXIII, (1R,3S)-3-{2-[3-(5-Methyl-2-m-tolyloxazol-4-ylmethoxy)cyclohexyloxy]ethoxy}-5-trifluoromethylthiophene-2-carboxylic acid]"

# More lines, now with the values behind:
row,SMILES,EC50 [nM]
1,"Cc1cccc(-c2nc(CO[C@H]3CCC[C@@H](OCCCNS(=O)(=O)C(F)(F)F)C3)c(C)o2)c1 [Example II, (1R,3S)—C,C,C-Trifluoro-N-{3-[3-(5-methyl-2-m-tolyloxazol-4-ylmethoxy)cyclohexyloxy]propyl}methanesulfonamide]",331
2,"CCc1ccc2c(c1)cc(C(=O)O)n2CCO[C@@H]1CCC[C@H](OCc2nc(-c3cccc(C)c3)oc2C)C1 [Example VII, (1R,3S)-5-Ethyl-1-{2-[3-(5-methyl-2-m-tolyloxazol-4-ylmethoxy)cyclohexyloxy]ethyl}-1H-indole-2-carboxylic acid]",469
3,"COc1ccc2cc(C(=O)O)n(CCO[C@@H]3CCC[C@H](OCc4nc(-c5cccc(C)c5)oc4C)C3)c2c1 [Example XI, (1R,3S)-6-Methoxy-1-{2-[3-(5-methyl-2-m-tolyloxazol-4-ylmethoxy)cyclohexyloxy]ethyl}-1H-indole-2-carboxylic acid]",361
4,"Cc1cccc(-c2nc(CO[C@H]3CCC[C@@H](OCCOc4cccc(C)c4C(=O)O)C3)c(C)o2)c1 [Example XIV, (1R,3S)-2-Methyl-6-{2-[3-(5-methyl-2-m-tolyloxazol-4-ylmethoxy)cyclohexyloxy]ethoxy}benzoic acid]",106
